Values of other authors as cited in patent US7198796B2, “Antifungal parenteral products” (Vicuron Pharmaceuticals Inc., priority 2002, dated 2007).
*1 amine or outer side, *2 acyl side, *3 side chain or, on linkers, in order; H or OH if unused. Where a SMILES comes first, the peptide text is derived from it. Bridges are numbered along the chain shown (N, C = ends). [ ]: non-standard residue; d: D form. The star is where a group is joined. ξ: configuration not given here. pTerphenylCO(4''-OnC5H11) = CCCCCOc1ccc(-c2ccc(-c3ccc(C(=O)*)cc3)cc2)cc1; ξOrn(4R-OH,5R-OH) = O=C(C(C[C@@H](O)[C@@H](O)N[*:3])N[*:1])[*:2]; hTyr(3S-OH,4S-OH) = N[C@H](C(=O)O)[C@H](O)[C@@H](O)c1ccc(O)cc1; Pro(3S-OH,4S-Me) = C[C@H]1CN[C@H](C(=O)O)[C@H]1O; Hyp = O=C(O)[C@@H]1C[C@@H](O)CN1

## CCCCCOc1ccc(-c2ccc(-c3ccc(C(=O)NC4C[C@@H](O)[C@@H](O)NC(=O)[C@@H]5[C@@H](O)[C@@H](C)CN5C(=O)[C@H]([C@@H](C)O)NC(=O)[C@H]([C@H](O)[C@@H](O)c5ccc(O)cc5)NC(=O)[C@@H]5C[C@@H](O)CN5C(=O)[C@H]([C@@H](C)O)NC4=O)cc3)cc2)cc1 (stereo partly drawn) [anidulafungin, 1-[(4R,5R)-4,5-Dihydroxy-N(2)-[[4″-(pentyloxy)[1,1′:4′,1″-terphenyl]-4-yl]carbonyl]-L-ornithine]echinocandin B] ({pTerphenylCO(4''-OnC5H11)}-[ξOrn(4R-OH,5R-OH)]T[Hyp][hTyr(3S-OH,4S-OH)]T[Pro(3S-OH,4S-Me)]; lactam 1-C)
  water solubility: less than 0.1 mg/ml
